Measured values as given in BigSolDB 2.1.

Cl.Cl.Fc1ccc(C(c2ccc(F)cc2)N2CCN(C/C=C/c3ccccc3)CC2)cc1
solubility (mole fraction)
Settings	in acetone	in acetonitrile	in ethanol	in ethyl acetate	in isobutanol	in isopropanol	in methanol	in methyl acetate	in n-butanol	in n-propanol
293.15 K	0.00271	0.00219	0.00522	0.00146	0.00186	0.0026	0.00604	0.00133	0.00185	0.00472
298.15 K	0.00338	0.00275	0.00649	0.00184	0.00236	0.00328	0.0076	0.00168	0.00236	0.00587
303.15 K	0.00422	0.00343	0.00792	0.00229	0.00296	0.00406	0.00934	0.00211	0.00296	0.00714
308.15 K	0.00518	0.00428	0.00975	0.00285	0.00371	0.00501	0.0115	0.00263	0.00372	0.00877
313.15 K	0.00638	0.00528	0.0119	0.00353	0.00462	0.00618	0.0139	0.00326	0.00464	0.0108
318.15 K	0.0078	0.00651	0.0145	0.00434	0.00573	0.00756	0.017	0.004	0.00575	0.013
323.15 K	0.00948	0.008	0.0176	0.0053	0.00711	0.00919	0.0207	0.00494	0.00712	0.0157
328.15 K	0.0115	0.00977	0.0211	0.00644	0.00873	0.0112	0.025	0.00603	0.00875	0.0189
333.15 K	0.0139	0.0119	0.0252	0.00782	0.0106	0.0136	0.0298	0.00736	0.0107	0.0225
